According to ChEMBL document CHEMBL3507680, “University of Dundee, Gates Library screen for HepG2 cell viability”:

Test: Human HepG2 cell viability assay in 384 well format
Assay type: toxicity, cell-based
Parameters: dose 125 nL, time 70.5 hour; cytotoxicity at 70.5 h: concentration not given beside the values
Conditions: HepG2 cells, read-out: Inhibition

| SMILES | cytotoxicity at 70.5 h [%] |
| --- | --- |
| Cc1nc2oc(C(=O)N3CCOCC3)c(N)c2c2c1CCCC2 | -17.3 |
| CCCC(=O)N(C)c1cccc2ncccc12 | -1.87 |
| CCN1CCN(c2ccc(CNC(=O)c3ccc(Cl)o3)cn2)CC1 | 3.11 |
| CCc1nc(NC(=O)NCCc2scnc2C)nn1C | 16.5 |
| COc1ccccc1CC(C)(C)NC(=O)CN(C)C(C)C | -11.5 |
| CCCNC(=O)c1cc(C(C)C)nc(N2CCCC2)n1 | -8.39 |
| CC(C)c1nc(C2CCCN(C(=O)CN3CCN(C)CC3)C2)no1 (configuration not stated) | -7.22 |
| CC(C)c1ccc(O)c(C(=O)NC2CCN(c3ncccn3)CC2)c1 | -19.5 |
| O=C(O)C1c2nc[nH]c2CCN1Cc1ccccc1-c1ccccc1 (configuration not stated) | -3.54 |
| Cc1cnccc1-c1cnn(CCNC(=O)c2cccnc2)c1C1CC1 | -5.95 |
| Cc1noc(C)c1CN1C[C@@H]2CCCO[C@@H]2[C@H](NS(C)(=O)=O)C1 | -9.8 |
| Cc1ccccc1N1CCCN(C(=O)CCCS(N)(=O)=O)CC1 | 15.2 |
| CCOc1ccc(C#N)cc1NCC(=O)NC(=O)NC | -3.9 |
| C[C@@H]1C[C@@H]2CCN(Cc3ccncc3)C[C@H]2O1 | -3.23 |
| CCS(=O)(=O)N1Cc2[nH]nc(COCc3cccnc3)c2C1 | -2.23 |
| Cc1ccc(-c2n[nH]cc2CNCCn2cccn2)o1 | 2.17 |
| CCC(NC(=O)c1cc(CC(C)C)nn1C)c1ccnn1C (configuration not stated) | -10.3 |
| CNC(=O)CCN1CCC(c2nnc(Cn3cccn3)n2C2CC2)CC1 | -8.33 |
| O=C(Cc1ccc2c(c1)OCO2)N1CCCN(c2nccs2)CC1 | -8.59 |

| SMILES | cytotoxicity at 70.5 h [%] |
| --- | --- |
| CCC(C)n1c(SCC(=O)N2CCOCC2)nc2cc(C)[nH]c2c1=O (configuration not stated) | 13.3 |
| CC(C)(C)OCC1CN(Cc2cccs2)S(=O)(=O)c2cnccc2O1 (configuration not stated) | -2.07 |
| Cc1cc(C(=O)N2CCc3nc(C4CCCN4)ncc3C2)cs1 (configuration not stated) | -4.19 |
| Cc1ccccc1CN1CCCC1c1cncc(Nc2nncs2)n1 (configuration not stated) | -13.3 |
| CC(NC(=O)NCCCN(C)S(C)(=O)=O)c1cccnc1 (configuration not stated) | -7.17 |
| Cc1cc(S(=O)(=O)N2CCCc3ccc(F)cc32)sc1C(=O)O | -2.82 |
| O=C(CN1CCCc2c(F)cc(Br)cc21)N1CCCC1 | 3.5 |
| COc1ncccc1CN1CCc2[nH]cnc2C1CCSC (configuration not stated) | 25.1 |
| CN(C)C(=O)N1C[C@@H]2CC[C@H](C1)N(Cc1ccc3nsnc3c1)C2 | -5.73 |
| C1CCC(NCC2(N3CCOCC3)CCSC2)C1 (configuration not stated) | 14.2 |
| COc1c(CNC2(c3ccc(Cl)cc3)CCC2)c(C)nn1C | 5.64 |
| C[C@H](O)CNc1cc(-c2ccccc2)ncn1 | -0.249 |
| CN(CC(=O)NCC(F)(F)F)C(=O)c1ccc(C(=O)OC(C)(C)C)cc1 | -0.193 |
| CC[C@@H]1N(Cc2ccncc2)CCC[C@]12CCC(=O)N2C | -20.1 |
| Cc1nnc(NC(=O)NCCN(C(=O)OC(C)(C)C)C2CC2)s1 | -4.34 |
| CN(c1ccc(C(=O)NCCCN2CCOCC2)c(Cl)c1)S(C)(=O)=O | -8.19 |
| Fc1cnc(N2CCCn3c(CN4CCOCC4)nnc3C2)nc1 | 25.5 |
| Cc1noc(C)c1CN1CC2(CCN(C(=O)c3cc[nH]n3)C2)CC1=O (configuration not stated) | -6.88 |
| CCc1nnc(C(C)N2CCc3cncnc3C2)o1 (configuration not stated) | -3.77 |

| SMILES | cytotoxicity at 70.5 h [%] |
| --- | --- |
| CCOCC(=O)N1CCC(C(O)c2ccc(F)cc2)CC1 (configuration not stated) | 2.49 |
| CC(C)CN(Cc1ccccn1)Cc1ccccc1C(=O)O | 14.4 |
| COCCn1cncc1Cn1cccc(C(F)(F)F)c1=O | 6.51 |
| Cc1ccc(-c2nc(CN3CCCC(C(=O)N(C)C)C3)cs2)o1 (configuration not stated) | 1.88 |
| Cc1nc(Nc2nccs2)cc(C2CCCN2C2CCOCC2)n1 (configuration not stated) | -8.39 |
| CN(C)S(=O)(=O)N1CC[C@]2(C[C@@H](OCC3CC3)CO2)C1 | 0.733 |
| NC(=O)c1cc(C2CCCN(CCOc3ccc(F)cc3)C2)n[nH]1 (configuration not stated) | -2.25 |
| O=C1NC[C@]2(CC[C@@H](C(=O)N3CCC(O)CC3)CC2)Oc2ccccc21 | -4.51 |
| O=S(=O)(Cc1ccccc1)NCCc1nnc2n1CCC2 | -7.99 |
| COCc1nc(N(C)C)ncc1C(=O)Nc1cc(C)cc(C)c1 | -6.56 |
| CCN(CC(C)O)C(=O)Nc1cnn(CCOC)c1 (configuration not stated) | 6.07 |
| O=S(=O)(c1ccccc1)N1CCOCC(Cc2cccnc2)C1 (configuration not stated) | -3.24 |
| Cc1nc(CNc2cccc(Cl)c2Cl)cs1 | 16.5 |
| Cn1cc(C2NC3(CCCC3)C(=O)N2CC2CC2)c(=O)n(C)c1=O (configuration not stated) | -5.99 |
| Cc1nccn1C1CCCN(C(=O)c2ccc3cc[nH]c3c2)C1 (configuration not stated) | -1.7 |
| CCC(CO)N(Cc1ccccn1)Cc1ccc(-c2ccn[nH]2)s1 (configuration not stated) | -14 |
| O=C(C1CCOCC1)N1CCc2ncc(CN3CCCCC3)n2CC1 | -10.2 |
| CCN1CCN(S(=O)(=O)c2ccc(Cc3cc(C)n[nH]c3=O)cc2)CC1 | -10.8 |
| Cn1cnc(-c2cc(C(=O)N3CCOCC3)c3ccccn23)c1 | -31.4 |
